≈ marks a conversion by molar mass, not a printed value.
How the values were obtained:
Format in all cases: functional
Streptococcus pneumoniae [1] = assay: Antibacterial activity against erythromycin-resistant Streptococcus pneumoniae A22072 expressing mefA gene after 24 hrs by broth dilution assay; conditions: A22072, 24 h
Staphylococcus aureus [2] = assay: Antibacterial activity against penicillin-resistant Staphylococcus aureus ATCC 31007 after 24 hrs by broth dilution assay; conditions: ATCC 31007, 24 h
Streptococcus pneumoniae [3] = assay: Antibacterial activity against erythromycin-resistant Streptococcus pneumoniae B1 expressing ermB gene after 24 hrs by broth dilution assay; conditions: B1, 24 h
Staphylococcus aureus [4] = assay: Antibacterial activity against […] Staphylococcus aureus ATCC 29213 after 24 hrs by broth dilution assay; conditions: ATCC 29213, 24 h
Bacillus subtilis = assay: Antibacterial activity against penicillin-susceptible Bacillus subtilis ATCC 9372 after 24 hrs by broth dilution assay; conditions: ATCC 9372, 24 h
Escherichia coli = assay: Antibacterial activity against penicillin-susceptible Escherichia coli ATCC 25922 after 24 hrs by broth dilution assay; conditions: ATCC 25922, 24 h
Staphylococcus aureus [5] = assay: Antibacterial activity against erythromycin-susceptible Staphylococcus aureus ATCC 25923 after 24 hrs by broth dilution assay; conditions: ATCC 25923, 24 h
Streptococcus pyogenes [6] = assay: Antibacterial activity against erythromycin-resistant Streptococcus pyogenes 2 after 24 hrs by broth dilution assay; conditions: Streptococcus pyogenes, 2, 24 h
Streptococcus pneumoniae [7] = assay: Antibacterial activity against erythromycin-resistant Streptococcus pneumoniae AB11 expressing ermB and mefA genes after 24 hrs by broth dilution assay; conditions: AB11, 24 h
Pseudomonas aeruginosa = assay: Antibacterial activity against penicillin-susceptible Pseudomonas aeruginosa ATCC 27853 after 24 hrs by broth dilution assay; conditions: ATCC 27853, 24 h
Streptococcus pyogenes [8] = assay: Antibacterial activity against erythromycin-susceptible Streptococcus pyogenes 1 after 24 hrs by broth dilution assay; conditions: Streptococcus pyogenes, 1, 24 h
Streptococcus pyogenes [9] = assay: Potency index, ratio of CAM MIC to compound MIC for antibacterial activity against erythromycin-resistant Streptococcus pyogenes 2
Streptococcus pyogenes [10] = assay: Potency index, ratio of AZM MIC to compound MIC for antibacterial activity against erythromycin-resistant Streptococcus pyogenes 2
Staphylococcus aureus [11] = assay: Potency index, ratio of AZM MIC to compound MIC for antibacterial activity against penicillin-resistant Staphylococcus aureus ATCC 31007
Staphylococcus aureus [12] = assay: Potency index, ratio of CAM MIC to compound MIC for antibacterial activity against penicillin-resistant Staphylococcus aureus ATCC 31007

Structure (SMILES) | MIC (Streptococcus pneumoniae [1]) [µg/mL] | MIC (Staphylococcus aureus [2]) [µg/mL] | MIC (Streptococcus pneumoniae [3]) [µg/mL] | MIC (Staphylococcus aureus [4]) [µg/mL] | MIC (Bacillus subtilis) [µg/mL] | MIC (Escherichia coli) [µg/mL] | MIC (Staphylococcus aureus [5]) [µg/mL] | MIC (Streptococcus pyogenes [6]) [µg/mL] | MIC (Streptococcus pneumoniae [7]) [µg/mL] | MIC (Pseudomonas aeruginosa) [µg/mL] | MIC (Streptococcus pyogenes [8]) [µg/mL] | Ratio (Streptococcus pyogenes [9]) | Ratio (Streptococcus pyogenes [10]) | Ratio (Staphylococcus aureus [11]) | Ratio (Staphylococcus aureus [12])
CC[C@H]1OC(=O)[C@H](C)[C@@H](O)[C@H](C)[C@@H](O[C@@H]2O[C@H](C)C[C@H](N(C)C)[C@H]2O)[C@](C)(OC)C[C@@H](C)/C(=N/OCc2ccccc2Cl)[C@H](C)[C@@H](O)[C@]1(C)O | 4 (≈ 5.48 µM) | 32 (≈ 43.9 µM) | 128 (≈ 175 µM) | 128 (≈ 175 µM) | 16 (≈ 21.9 µM) | 128 (≈ 175 µM) | 64 (≈ 87.7 µM) | 128 (≈ 175 µM) | 128 (≈ 175 µM) | 128 (≈ 175 µM) | 4 (≈ 5.48 µM) | – | – | – | –
CCCCNC(=O)O[C@H]1[C@H](C)[C@@H](O[C@@H]2O[C@H](C)C[C@H](N(C)C)[C@H]2O)[C@](C)(OC)C[C@@H](C)/C(=N/OCc2ccccc2Cl)[C@H](C)[C@@H](O)[C@](C)(O)[C@@H](CC)OC(=O)[C@@H]1C | 0.5 (≈ 0.604 µM) | 8 (≈ 9.66 µM) | 128 (≈ 154 µM) | 128 (≈ 154 µM) | 2 (≈ 2.41 µM) | 128 (≈ 154 µM) | 4 (≈ 4.83 µM) | 8 (≈ 9.66 µM) | 128 (≈ 154 µM) | 128 (≈ 154 µM) | 1 (≈ 1.21 µM) | 32 | 32 | – | –
CC[C@H]1OC(=O)[C@H](C)[C@@H](OC(=O)NCc2ccc(N)cc2)[C@H](C)[C@@H](O[C@@H]2O[C@H](C)C[C@H](N(C)C)[C@H]2O)[C@](C)(OC)C[C@@H](C)/C(=N/OCc2ccccc2Cl)[C@H](C)[C@@H](O)[C@]1(C)O | 0.5 (≈ 0.57 µM) | 16 (≈ 18.2 µM) | 128 (≈ 146 µM) | 128 (≈ 146 µM) | 4 (≈ 4.56 µM) | 128 (≈ 146 µM) | 16 (≈ 18.2 µM) | 16 (≈ 18.2 µM) | 128 (≈ 146 µM) | 128 (≈ 146 µM) | 1 (≈ 1.14 µM) | – | – | – | –
CC[C@H]1OC(=O)[C@H](C)[C@@H](OC(=O)NCc2ccc(Cl)cc2)[C@H](C)[C@@H](O[C@@H]2O[C@H](C)C[C@H](N(C)C)[C@H]2O)[C@](C)(OC)C[C@@H](C)/C(=N/OCc2ccccc2Cl)[C@H](C)[C@@H](O)[C@]1(C)O | 0.5 (≈ 0.557 µM) | 4 (≈ 4.46 µM) | 128 (≈ 143 µM) | 128 (≈ 143 µM) | 2 (≈ 2.23 µM) | 128 (≈ 143 µM) | 8 (≈ 8.92 µM) | 8 (≈ 8.92 µM) | 128 (≈ 143 µM) | 128 (≈ 143 µM) | 2 (≈ 2.23 µM) | 32 | 32 | 64 | 64
CC[C@H]1OC(=O)[C@H](C)[C@@H](OC(=O)NCCc2ccc(O)cc2)[C@H](C)[C@@H](O[C@@H]2O[C@H](C)C[C@H](N(C)C)[C@H]2O)[C@](C)(OC)C[C@@H](C)/C(=N/OCc2ccccc2Cl)[C@H](C)[C@@H](O)[C@]1(C)O | 0.25 (≈ 0.28 µM) | 4 (≈ 4.48 µM) | 128 (≈ 143 µM) | 128 (≈ 143 µM) | 1 (≈ 1.12 µM) | 128 (≈ 143 µM) | 4 (≈ 4.48 µM) | 8 (≈ 8.96 µM) | 128 (≈ 143 µM) | 128 (≈ 143 µM) | 0.5 (≈ 0.56 µM) | 32 | 32 | – | –
CC[C@H]1OC(=O)[C@H](C)[C@@H](OC(=O)NCc2cccc(F)c2)[C@H](C)[C@@H](O[C@@H]2O[C@H](C)C[C@H](N(C)C)[C@H]2O)[C@](C)(OC)C[C@@H](C)/C(=N/OCc2ccccc2Cl)[C@H](C)[C@@H](O)[C@]1(C)O | 0.5 (≈ 0.568 µM) | 4 (≈ 4.54 µM) | 128 (≈ 145 µM) | 128 (≈ 145 µM) | 2 (≈ 2.27 µM) | 128 (≈ 145 µM) | 4 (≈ 4.54 µM) | 8 (≈ 9.09 µM) | 128 (≈ 145 µM) | 128 (≈ 145 µM) | 1 (≈ 1.14 µM) | 32 | 32 | 64 | 64
CC[C@H]1OC(=O)[C@H](C)[C@@H](O[C@H]2C[C@@](C)(OC)[C@@H](O)[C@H](C)O2)[C@H](C)[C@@H](O[C@@H]2O[C@H](C)C[C@H](N(C)C)[C@H]2O)[C@](C)(O)C[C@@H](C)CN(C)[C@H](C)[C@@H](O)[C@]1(C)O [AZITHROMYCIN] | 4 (≈ 5.34 µM) | 256 (≈ 342 µM) | 128 (≈ 171 µM) | 8 (≈ 10.7 µM) | 0.5 (≈ 0.668 µM) | 8 (≈ 10.7 µM) | 0.25 (≈ 0.334 µM) | 256 (≈ 342 µM) | 128 (≈ 171 µM) | 16 (≈ 21.4 µM) | 0.03 (≈ 0.0401 µM) | – | – | – | –
CC[C@H]1OC(=O)[C@H](C)[C@@H](O[C@H]2C[C@@](C)(OC)[C@@H](O)[C@H](C)O2)[C@H](C)[C@@H](O[C@@H]2O[C@H](C)C[C@H](N(C)C)[C@H]2O)[C@](C)(OC)C[C@@H](C)C(=O)[C@H](C)[C@@H](O)[C@]1(C)O [CLARITHROMYCIN] | 2 (≈ 2.67 µM) | 256 (≈ 342 µM) | 128 (≈ 171 µM) | 64 (≈ 85.6 µM) | 0.25 (≈ 0.334 µM) | 32 (≈ 42.8 µM) | 0.25 (≈ 0.334 µM) | 256 (≈ 342 µM) | 128 (≈ 171 µM) | 32 (≈ 42.8 µM) | 0.03 (≈ 0.0401 µM) | – | – | – | –

— ChEMBL document CHEMBL4261593, “Synthesis and antibacterial activity of novel 3-O-arylalkylcarbamoyl-3-O-descladinosyl-9-O-(2-chlorobenzyl)oxime clarithromycin derivatives” (2018)
